Data published in US20180148418A1, “AMIDO-SUBSTITUTED CYCLOHEXANE DERIVATIVES” (Bayer Pharma Aktiengesellschaft, priority 2015, published 2018).
pIC50: −log10 of the molar value.

Columns and labels:
[1] = target: T1, TNKS2 (Homo sapiens, UniProt Q9H2K2); test: TNKS2 Assay B (auto-parsylation, [3H]-NAD+ SPA); format: biochemical; settings: 6 nM TNKS2, auto-parsylation, over night at room temperature
T1 construct: purchased BPS Bioscience, San Diego, USA 80572 (TNKS2 Histone Ribosylation Assay Kit)
T1 sequence (Q9H2K2 1-1166): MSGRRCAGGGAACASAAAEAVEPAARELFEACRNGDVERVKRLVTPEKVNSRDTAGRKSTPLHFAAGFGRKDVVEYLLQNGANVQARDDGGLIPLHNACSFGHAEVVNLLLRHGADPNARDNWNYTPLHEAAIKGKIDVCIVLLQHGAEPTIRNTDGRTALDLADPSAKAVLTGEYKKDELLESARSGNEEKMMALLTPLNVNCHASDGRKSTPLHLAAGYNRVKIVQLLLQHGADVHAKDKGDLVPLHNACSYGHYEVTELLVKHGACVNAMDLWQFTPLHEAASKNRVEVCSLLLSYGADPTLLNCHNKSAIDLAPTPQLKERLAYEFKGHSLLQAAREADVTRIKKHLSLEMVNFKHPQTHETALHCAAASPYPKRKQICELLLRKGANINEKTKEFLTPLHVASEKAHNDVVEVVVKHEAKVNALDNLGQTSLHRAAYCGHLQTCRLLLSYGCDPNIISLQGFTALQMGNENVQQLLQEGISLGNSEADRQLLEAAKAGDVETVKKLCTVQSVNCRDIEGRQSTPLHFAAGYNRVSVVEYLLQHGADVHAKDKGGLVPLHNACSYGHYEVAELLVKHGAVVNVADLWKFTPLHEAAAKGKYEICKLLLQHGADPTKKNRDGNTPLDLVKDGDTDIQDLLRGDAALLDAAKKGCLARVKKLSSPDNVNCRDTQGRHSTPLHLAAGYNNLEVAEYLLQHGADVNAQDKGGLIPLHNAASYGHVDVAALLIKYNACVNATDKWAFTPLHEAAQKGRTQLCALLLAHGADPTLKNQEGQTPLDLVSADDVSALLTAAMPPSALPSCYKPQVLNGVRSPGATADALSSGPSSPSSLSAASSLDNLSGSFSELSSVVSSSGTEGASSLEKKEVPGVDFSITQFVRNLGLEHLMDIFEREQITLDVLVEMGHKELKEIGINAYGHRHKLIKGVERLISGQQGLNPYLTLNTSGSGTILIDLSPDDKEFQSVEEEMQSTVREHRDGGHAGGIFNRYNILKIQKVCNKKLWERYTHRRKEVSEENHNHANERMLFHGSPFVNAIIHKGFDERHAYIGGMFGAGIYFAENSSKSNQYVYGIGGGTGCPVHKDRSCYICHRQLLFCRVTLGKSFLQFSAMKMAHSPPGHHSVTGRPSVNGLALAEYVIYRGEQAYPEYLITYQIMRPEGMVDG

[2] = system: wildtype Wnt signaling cascade; test: HEK293 TOP assay (Super TopFlash luciferase reporter, Wnt-3a stimulated); format: cell-based; settings: Homo sapiens, HEK293, 16 h, HEK293 TOP reporter cells, Wnt3a at EC50, 16 hours
Summary of the method: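 HEK293 cells stably carrying Super TopFlash (TOP) run in parallel with FOP cells, 10000/well plated 24 h ahead, stimulated with recombinant human Wnt-3a. Compounds tested 50 μM to 15 nM in 3.16-fold steps in CAFTY buffer pH 7.4 with 2 mM Ca^2+ and 0.01% BSA; luciferase read-out.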

Row | Structure (SMILES) | pIC50 [1] | pIC50 [2]
1 | O=C(NC[C@H]1CCCO1)c1nc[nH]c1C(=O)N[C@H]1CC[C@H](C(=O)Nc2ccc(F)cc2Cl)CC1 [Example 80, N^5-{trans-4-[(2-chloro-4-fluorophenyl)carbamoyl]cyclohexyl}-N^4-[(2R)-tetrahydrofuran-2-ylmethyl]-1H-imidazole-4,5-dicarboxamide] | 7.30 | 7.05
2 | CN1CCN(c2ccc3ncc(C(=O)N[C@H]4CC[C@H](C(=O)Nc5ccc(F)cc5Cl)CC4)n3n2)CC1 [Example 49, N-{trans-4-[(2-chloro-4-fluorophenyl)carbamoyl]cyclohexyl}-6-(4-methylpiperazin-1-yl)imidazo[1,2-b]pyridazine-3-carboxamide] | 6.89 | 6.17
3 | COC(=O)c1cc(C)nc2c(C(=O)N[C@H]3CC[C@H](C(=O)Nc4ccc(F)cc4Cl)CC3)cnn12 [Example 352, methyl 3-({trans-4-[(2-chloro-4-fluorophenyl)carbamoyl]cyclohexyl}carbamoyl)-5-methylpyrazolo[1,5-a]pyrimidine-7-carboxylate] | 6.92 | 5.12
4 | CNC(=O)c1nc[nH]c1C(=O)N[C@H]1CC[C@H](C(=O)Nc2c(F)cc(F)cc2Br)CC1 [Example 28, N^5-{trans-4-[(6-bromo-2,4-difluorophenyl)carbamoyl]cyclohexyl}-N^4-methyl-1H-imidazole-4,5-dicarboxamide] | 7.59 | 7.62
5 | COC(C)(C)CNC(=O)c1nc[nH]c1C(=O)N[C@H]1CC[C@H](C(=O)Nc2ccc(F)cc2Cl)CC1 [Example 73, N^5-{trans-4-[(2-chloro-4-fluorophenyl)carbamoyl]cyclohexyl}-N^4-(2-methoxy-2-methylpropyl)-1H-imidazole-4,5-dicarboxamide] | 6.72 | 6.40
6 | O=C(N[C@H]1CC[C@H](C(=O)Nc2ccc(F)cc2Cl)CC1)c1cnc2ccc(N3CCCC3)nn12 [Example 51, N-{trans-4-[(2-chloro-4-fluorophenyl)carbamoyl]cyclohexyl}-6-(pyrrolidin-1-yl)imidazo[1,2-b]pyridazine-3-carboxamide] | 7.51 | 6.54
7 | Cc1cc(N2CC[C@]3(CC[C@@H](NC(=O)c4[nH]cnc4C(=O)NCCN4CCC(C)CC4)CC3)C2=O)c(Cl)cc1F [Example 290, N^5-[(trans)-2-(2-chloro-4-fluoro-5-methylphenyl)-1-oxo-2-azaspiro[4.5]dec-8-yl]-N^4-[2-(4-methylpiperidin-1-yl)ethyl]-1H-imidazole-4,5-dicarboxamide] | 8.77 | 8.33
8 | O=C(NC[C@@H]1CCCO1)c1nc[nH]c1C(=O)N[C@H]1CC[C@H](C(=O)Nc2ccc(F)cc2Cl)CC1 [Example 79, N^5-{trans-4-[(2-chloro-4-fluorophenyl)carbamoyl]cyclohexyl}-N^4-[(2S)-tetrahydrofuran-2-ylmethyl]-1H-imidazole-4,5-dicarboxamide] | 7.00 | 6.85
9 | O=C(NCC1CCCO1)c1nc[nH]c1C(=O)N[C@H]1CC[C@H](C(=O)Nc2c(F)cc(F)cc2Cl)CC1 (stereo in doubt) [Example 71, N^5-{trans-4-[(2-chloro-4,6-difluorophenyl)carbamoyl]cyclohexyl}-N^4-[(2R)-tetrahydrofuran-2-ylmethyl]-1H-imidazole-4,5-dicarboxamide] | 7.18 | 7.00
10 | COC(C)CNC(=O)c1nc[nH]c1C(=O)N[C@H]1CC[C@H](C(=O)Nc2ccc(F)cc2Cl)CC1 (stereo partly drawn) [Example 81, N^5-{trans-4-[(2-chloro-4-fluorophenyl)carbamoyl]cyclohexyl}-N^4-(2-methoxypropyl)-1H-imidazole-4,5-dicarboxamide] | 7.14 | 6.82

Next, values leading:

Row | pIC50 [1] | pIC50 [2] | Structure (SMILES)
11 | 5.66 | 6.21 | Cc1cc(C(C)(C)C)n2ncc(C(=O)N[C@H]3CC[C@H](C(=O)Nc4ccc(F)cc4Cl)CC3)c2n1 [Example 60, 7-tert-butyl-N-{trans-4-[(2-chloro-4-fluorophenyl)carbamoyl]cyclohexyl}-5-methylpyrazolo[1,5-a]pyrimidine-3-carboxamide]
12 | 7.25 | 5.17 | COC(=O)c1cc(C)nc2c(C(=O)N[C@H]3CC[C@H](C(=O)Nc4c(F)cc(F)cc4Cl)CC3)cnn12 [Example 351, methyl 3-({trans-4-[(2-chloro-4,6-difluorophenyl)carbamoyl]cyclohexyl}carbamoyl)-5-methylpyrazolo[1,5-a]pyrimidine-7-carboxylate]
13 | 6.55 | 6.57 | CNC(=O)c1[nH]cnc1C(=O)N[C@@H]1CC[C@@H](C(=O)Nc2ccc(F)cc2Cl)CC1(F)F (stereo in doubt) [Example 32, N^4-{(trans)-4-[(2-chloro-4-fluorophenyl)carbamoyl]-2,2-difluorocyclohexyl}-N^5-methyl-1H-imidazole-4,5-dicarboxamide]
14 | 7.12 | 6.66 | O=C(NC[C@H]1CCCO1)c1nc[nH]c1C(=O)N[C@H]1CC[C@H](C(=O)Nc2c(F)cc(F)cc2Cl)CC1 [Example 70, N^5-{trans-4-[(2-chloro-4,6-difluorophenyl)carbamoyl]cyclohexyl}-N^4-[(2R)-tetrahydrofuran-2-ylmethyl]-1H-imidazole-4,5-dicarboxamide]
15 | 6.23 | 6.03 | CNC(=O)c1ncoc1C(=O)N[C@H]1CC[C@H](C(=O)Nc2ccc(F)cc2Cl)CC1 [Example 29, N^5-{trans-4-[(2-chloro-4-fluorophenyl)carbamoyl]cyclohexyl}-N^4-methyl-1,3-oxazole-4,5-dicarboxamide]
